{"source": "patent US20160185808A1", "about": "“PLATINUM DERIVATIVES FOR HYDROPHOBIC FORMULATIONS” (priority 2013, published 2016)", "key": {"[1]": {"tested_on": "SKOV3 human ovary cancer cells", "test": "Therapeutic efficacy in vivo against SKOV3 tumors in Nu/Nu mice", "method": "The therapeutic efficacy of the Pt (II) complex against cancer was examined in vivo according to the following procedure, the results of which can be seen both in Table III and in graphical form in FIG. 4. To develop orthotropic tumors, 30 Nu/Nu female mice, each weighing approximately 20 g (Charles River Laboratories, Cambridge, Mass.), were injected intraperitoneally (ip) with 1×10^6 SKOV3 human ovary cancer cells (American Type Culture Collection (ATCC), Manassas, Va.) suspended in phosphate buffered saline. Animals were then dosed with nothing (control group) or test compounds. […] Cisplatin was administered to mice as a comparative sample and its effectiveness was also examined. The doses of Pt-MMA (21 mg/kg) and cis-Platin (5 mg/kg) were calculated so that animals received equivalent amounts of Pt. Dosing began 39 days after tumor injection in cells when the tumors had reached a volume of 150 mm^3-200 mm^3 measured with a ruler.\nControl or platinum compound treatment was administered on the 39th, 46th, 53th, 60th, and 66th day after initial tumor injections. The survival time of each group of mice was determined and the median survival time (days) was estimated on the basis of the observed survival time of each mouse. The therapeutic effectiveness of the Pt (II) complex is represented by the median survival significance compared to control (P-Value)."}, "[2]": {"test": "Storage stability of nanoemulsion formulations", "assay_type": "physicochemical", "conditions": "concentration up to 5 mg/ml, at both 4° C. and room temperature", "method": "The poor […] of these compounds is due to the presence of a di-fatty acid structure, which causes them to be too hydrophobic. […] Nanoemulsion formulations prepared with a concentration of up to 5 mg/ml of cisplatin mono-myristate, cisplatin mono-palmitate, and cisplatin mono-stearate were stable at both 4° C. and room temperature for approximately 3 months."}, "[3]": {"conditions": "cisplatin 5 mg/kg, Pt-MMA 21 mg/kg"}}}
{"molecule": "N.N.[Cl][Pt][Cl]", "note": "[Cisplatin, Cis-dichlorodiammine Pt (II)]", "values": [{"measurement": "median survival compared to control group (in words)", "setting": "[1]", "result": "not significantly improved"}, {"measurement": "Average Tumor Size at 21 Days", "setting": "[1]; 21 days, cisplatin 5 mg/kg, Pt-MMA 21 mg/kg", "result": "640 ± 314", "unit": "mm^3"}, {"measurement": "Average Tumor Starting Size", "setting": "[1]; at start of dosing (day 39 after tumor injection)", "result": "171 ± 43", "unit": "mm^3"}, {"measurement": "Median Survival", "setting": "[1]; [3]", "result": 28, "unit": "days"}, {"measurement": "Time for First Tumor to Reach 1000 mm^3", "setting": "[1]; [3]", "result": 17, "unit": "days"}, {"measurement": "Median Survival Significance Compared to Control (P-Value)", "setting": "[1]; compared to control group", "result": 0.0606}]}
{"molecule": "CCCCCCCCCCCCCC(=O)[O][Pt]([NH2])([NH2])[Cl]", "note": "[Cisplatin-mono myristate, cis-Diamine Pt (II) Chloride Monomyristic Acid]", "values": [{"measurement": "Time nanoemulsion formulations were stable", "setting": "[2]", "result": "approximately 3 months"}]}
{"molecule": "cis-Diamine Pt (II) Chloride Monopalmitic Acid [Cisplatin-mono palmitate]", "values": [{"measurement": "Time nanoemulsion formulations were stable", "setting": "[2]", "result": "approximately 3 months"}]}
{"molecule": "cis-Diamine Pt (II) Chloride Monostearic Acid [Cisplatin-mono stearate]", "values": [{"measurement": "Time nanoemulsion formulations were stable", "setting": "[2]", "result": "approximately 3 months"}]}
